ChEMBL document CHEMBL4428132, “Application of Fragment-Based de Novo Design to the Discovery of Selective Picomolar Inhibitors of Glycogen Synthase Kinase-3 Beta” (J Med Chem, 2016)
pIC50: −log10 of the molar value.

These compounds were tested on SK-BR-3 (assay: Antiproliferative activity against human SKBR3 cells by MTT assay).
Assay type: functional, cell-based
`COc1ccc(-c2c[nH]c3ncc(/C=C/C(=O)NCc4ccncc4)cc23)cc1` was tested, and the pIC50 was under 5.00.
Compound `CC(=O)c1ccc(-c2c[nH]c3ncc(/C=C/C(=O)NCCc4ccccn4)cc23)cc1` has a pIC50 of under 5.00.

Each compound was assayed against T1, Glycogen synthase kinase-3 beta (Homo sapiens, UniProt P49841) (assay: Inhibition of His-tagged full length human recombinant GSK3beta using [YRRAAVPPSPSLSRHSSPHQ-(pS)EDEEE] substrate and pre-incubarted for 20 mins before [gamma-33P]ATP addition and measured after 2 hrs by radiometric kinase assay).
Target sequence in this assay (P49841 whole entry): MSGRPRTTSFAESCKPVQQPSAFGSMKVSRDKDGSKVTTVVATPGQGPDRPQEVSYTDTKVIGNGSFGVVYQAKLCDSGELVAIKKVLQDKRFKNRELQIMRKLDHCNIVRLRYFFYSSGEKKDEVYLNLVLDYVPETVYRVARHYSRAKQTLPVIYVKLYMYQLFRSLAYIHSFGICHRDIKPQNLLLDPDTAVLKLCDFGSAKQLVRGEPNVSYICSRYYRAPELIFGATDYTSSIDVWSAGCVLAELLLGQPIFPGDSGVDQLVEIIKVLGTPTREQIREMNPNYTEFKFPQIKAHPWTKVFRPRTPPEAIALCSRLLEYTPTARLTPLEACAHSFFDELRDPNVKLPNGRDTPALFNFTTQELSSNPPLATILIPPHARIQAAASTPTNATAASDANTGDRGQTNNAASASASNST
`O=C(/C=C/c1cnc2[nH]cc(-c3ccncc3)c2c1)NCc1ccncc1` was tested, and the pIC50 was 8.56.
For `O=C(/C=C/c1cnc2[nH]cc(-c3ccccc3)c2c1)NCc1ccco1`, the pIC50 was 7.11.
Compound `O=C(/C=C/c1cnc2[nH]cc(-c3ccccc3)c2c1)NCCc1ccccc1` has a pIC50 of 6.61.
With `O=C(/C=C/c1cnc2[nH]cc(-c3ccccc3)c2c1)NCc1ccc2[nH]ccc2c1` the pIC50 was 6.34.
Compound `N#Cc1ccc(-c2c[nH]c3ncc(/C=C/C(=O)NCc4ccncc4)cc23)cc1` has a pIC50 of 7.20.
`COc1ccc(-c2c[nH]c3ncc(/C=C/C(=O)NCc4ccncc4)cc23)cc1` showed a pIC50 of 9.29.
Work on `O=C(C/C=C/c1cnc2[nH]cc(-c3ccccc3)c2c1)NCCc1c[nH]c2ccccc12` yielded a pIC50 of 5.42.
With `O=C(/C=C/c1cnc2[nH]cc(-c3cccnc3)c2c1)NCc1ccncc1` the pIC50 was 7.78.
Work on `CS(=O)(=O)c1ccc(-c2c[nH]c3ncc(/C=C/C(=O)NCc4ccncc4)cc23)cc1` yielded a pIC50 of 6.66.
`O=C(/C=C/c1cnc2[nH]cc(-c3ccccc3)c2c1)NCCc1c[nH]c2ccccc12` was tested, and the pIC50 was 6.45.
For `O=C(C/C=C/c1cnc2[nH]cc(-c3ccccc3)c2c1)NCCc1ccccc1`, the pIC50 was under 4.30.
`CC(=O)c1ccc(-c2c[nH]c3ncc(/C=C/C(=O)NCCc4ccccn4)cc23)cc1` gave a pIC50 of 8.86.
`CC(=O)c1ccc(-c2c[nH]c3ncc(/C=C/C(=O)NCc4ccncc4)cc23)cc1` showed a pIC50 of 8.85.
`O=C(/C=C/c1cnc2[nH]cc(-c3ccccc3)c2c1)NCCN1CCOCC1` showed a pIC50 of 7.34.
In the case of `O=C(CNC(=O)c1cnc2[nH]cc(-c3ccncc3)c2c1)NCCc1c[nH]c2ccccc12`, the pIC50 was 6.00.
Work on `O=C(CNC(=O)c1ccc2noc(-c3ccccc3)c2c1)NCCc1c[nH]c2ccccc12` yielded a pIC50 of under 4.30.
`O=C(/C=C/c1cnc2[nH]cc(-c3ccccc3)c2c1)NCc1nc2ccccc2[nH]1` was tested, and the pIC50 was 7.21.
Compound `O=C(CNC(=O)c1cnc2[nH]cc(-c3ccccc3)c2c1)NCCc1c[nH]c2ccccc12` has a pIC50 of 5.84.
`NC(=O)c1ccc(-c2c[nH]c3ncc(/C=C/C(=O)NCc4ccncc4)cc23)cc1` gave a pIC50 of 8.35.
Compound `O=C(/C=C/c1cnc2[nH]cc(-c3ccccc3)c2c1)NCc1cccnc1` has a pIC50 of 7.19.
`O=C(/C=C/c1cnc2[nH]cc(-c3ccccc3)c2c1)NCc1ccc2c(c1)CCO2` showed a pIC50 of 6.99.
Work on `O=C(/C=C/c1cnc2[nH]cc(-c3ccc(F)cc3)c2c1)NCc1ccncc1` yielded a pIC50 of 7.64.
`O=C(CCc1cnc2[nH]cc(-c3ccccc3)c2c1)NCCc1c[nH]c2ccccc12` showed a pIC50 of 5.99.
For `O=C(/C=C/c1cnc2[nH]cc(-c3ccccc3)c2c1)NCc1ccccn1`, the pIC50 was 6.78.
Work on `O=C(CNC(=O)c1ccc2[nH]cc(-c3ccncc3)c2c1)NCCc1c[nH]c2ccccc12` yielded a pIC50 of 4.47.
For `O=C(/C=C/c1cnc2[nH]cc(-c3ccccc3)c2c1)NCc1ccncc1`, the pIC50 was 8.44.
For `O=C(/C=C/c1cnc2[nH]cc(-c3ccccc3)c2c1)NCCc1ccncc1`, the pIC50 was 7.36.
`O=C(/C=C/c1cnc2[nH]cc(-c3ccccc3)c2c1)NCCc1c[nH]c2ncccc12` showed a pIC50 of 6.89.

The compounds below were run on MCF7 (assay: Antiproliferative activity against human MCF7 cells by MTT assay).
Assay type: functional, cell-based
With `COc1ccc(-c2c[nH]c3ncc(/C=C/C(=O)NCc4ccncc4)cc23)cc1` the pIC50 was under 5.00.
Compound `CC(=O)c1ccc(-c2c[nH]c3ncc(/C=C/C(=O)NCCc4ccccn4)cc23)cc1` has a pIC50 of under 5.00.

Each compound was assayed on MDA-MB-231 (assay: Antiproliferative activity against human MDA231 cells by MTT assay).
Assay type: functional, cell-based
`COc1ccc(-c2c[nH]c3ncc(/C=C/C(=O)NCc4ccncc4)cc23)cc1` gave a pIC50 of under 5.00.
`CC(=O)c1ccc(-c2c[nH]c3ncc(/C=C/C(=O)NCCc4ccccn4)cc23)cc1` gave a pIC50 of under 5.00.

The compounds below were run against Aurora kinase B (Homo sapiens) (UniProt Q96GD4) (assay: Inhibition of Aurora kinase B (unknown origin) assessed as remaining enzyme activity at 1 uM).
Sequence of Aurora kinase B (Homo sapiens) (Q96GD4 whole entry): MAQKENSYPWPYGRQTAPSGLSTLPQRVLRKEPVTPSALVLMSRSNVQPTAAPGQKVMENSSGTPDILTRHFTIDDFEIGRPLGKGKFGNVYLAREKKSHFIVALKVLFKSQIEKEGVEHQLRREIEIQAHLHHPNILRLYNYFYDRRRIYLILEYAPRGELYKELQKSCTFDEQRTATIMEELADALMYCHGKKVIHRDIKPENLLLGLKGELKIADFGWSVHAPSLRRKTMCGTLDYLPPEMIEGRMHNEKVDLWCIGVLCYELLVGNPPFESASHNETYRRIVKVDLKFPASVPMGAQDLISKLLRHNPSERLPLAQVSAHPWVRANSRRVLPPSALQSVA
`CC(=O)c1ccc(-c2c[nH]c3ncc(/C=C/C(=O)NCCc4ccccn4)cc23)cc1` showed an Activity of 23%.

What follows are compounds tested against T1, Glycogen synthase kinase-3 beta (assay: Inhibition of GSK3beta (unknown origin) assessed as remaining enzyme activity at 1 uM).
Target sequence in this assay (P49841 whole entry, looked up): as the sequence (P49841 whole entry) above
With `COc1ccc(-c2c[nH]c3ncc(/C=C/C(=O)NCc4ccncc4)cc23)cc1` the Activity was 1.2%.
For `CC(=O)c1ccc(-c2c[nH]c3ncc(/C=C/C(=O)NCCc4ccccn4)cc23)cc1`, the Activity was 3.4%.

The compounds below were run against Cyclin-dependent kinase 2 (Homo sapiens) (UniProt P24941) (assay: Inhibition of CDK2 (unknown origin) assessed as remaining enzyme activity at 1 uM).
`COc1ccc(-c2c[nH]c3ncc(/C=C/C(=O)NCc4ccncc4)cc23)cc1` gave an Activity of 97%.
For `CC(=O)c1ccc(-c2c[nH]c3ncc(/C=C/C(=O)NCCc4ccccn4)cc23)cc1`, the Activity was 85%.
